# Experimental data reported in patent publication US20210053957A1, “HERBICIDAL COMPOUNDS” (SYNGENTA PARTICIPATIONS AG, priority 2018, published 2021).
# Legend:
# Experiment in all cases: Post-emergence efficacy, glasshouse spray test
# Type in all cases: in vivo
# [1] = system: Amaranthus palmeri (AMAPA); conditions: Application Rate 500 g/Ha, evaluated after 13 days; for pest or weed control at 500 g/ha: Amaranthus palmeri, post-emergence, 312 h, read-out: Control of weed species after post-emergence application, AMAPA (100=total damage to plant; 0=no damage to plant)
# In short: (§1)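 Plants grown 14 days in glasshouse (24/16 °C day/night, 14 h light, 65% humidity), then sprayed post-emergence with compound formulated in acetone/IF50 emulsifier, diluted in 0.25% or 1% Empicol ESC70 plus 1% ammonium sulphate. Damage scored after 13 days, 0 (none) to 100 (total).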
# [2] = system: Chenopodium album (CHEAL); conditions: Application Rate 500 g/Ha, evaluated after 13 days; for pest or weed control at 500 g/ha: Chenopodium album, post-emergence, 312 h, read-out: Control of weed species after post-emergence application, CHEAL (100=total damage to plant; 0=no damage to plant)
# In short: as §1
# [3] = system: Digitaria sanguinalis (DIGSA); conditions: Application Rate 500 g/Ha, evaluated after 13 days; for pest or weed control at 500 g/ha: Digitaria sanguinalis, post-emergence, 312 h, read-out: Control of weed species after post-emergence application, DIGSA (100=total damage to plant; 0=no damage to plant)
# In short: as §1
# [4] = system: Echinochloa crus-galli (ECHCG); conditions: Application Rate 500 g/Ha, evaluated after 13 days; for pest or weed control at 500 g/ha: Echinochloa crus-galli, post-emergence, 312 h, read-out: Control of weed species after post-emergence application, ECHCG (100=total damage to plant; 0=no damage to plant)
# In short: as §1
# Eleusine indica (ELEIN) = conditions: Application Rate 500 g/Ha, evaluated after 13 days; for pest or weed control at 500 g/ha: Eleusine indica, post-emergence, 312 h, read-out: Control of weed species after post-emergence application, ELEIN (100=total damage to plant; 0=no damage to plant)
# In short: as §1
# [5] = system: Euphorbia heterophylla (EPHHL); conditions: Application Rate 500 g/Ha, evaluated after 13 days; for pest or weed control at 500 g/ha: Euphorbia heterophylla, post-emergence, 312 h, read-out: Control of weed species after post-emergence application, EPHHL (100=total damage to plant; 0=no damage to plant)
# In short: as §1
# [6] = system: Ipomoea hederacea (IPOHE); conditions: Application Rate 500 g/Ha, evaluated after 13 days; for pest or weed control at 500 g/ha: Ipomoea hederacea, post-emergence, 312 h, read-out: Control of weed species after post-emergence application, IPOHE (100=total damage to plant; 0=no damage to plant)
# In short: as §1
# Lolium perenne (LOLPE) = conditions: Application Rate 500 g/Ha, evaluated after 13 days; for pest or weed control at 500 g/ha: Lolium perenne, post-emergence, 312 h, read-out: Control of weed species after post-emergence application, LOLPE (100=total damage to plant; 0=no damage to plant)
# In short: as §1
# Setaia fabei (SETFA) = conditions: Application Rate 500 g/Ha, evaluated after 13 days; for pest or weed control at 500 g/ha: Setaria faberi, post-emergence, 312 h, read-out: Control of weed species after post-emergence application, SETFA (100=total damage to plant; 0=no damage to plant)
# In short: as §1
Compound,pest or weed control at 500 g/ha [1],pest or weed control at 500 g/ha [2],pest or weed control at 500 g/ha [3],pest or weed control at 500 g/ha [4],pest or weed control at 500 g/ha (Eleusine indica (ELEIN)),pest or weed control at 500 g/ha [5],pest or weed control at 500 g/ha [6],pest or weed control at 500 g/ha (Lolium perenne (LOLPE)),pest or weed control at 500 g/ha (Setaia fabei (SETFA)),"Control of weed species after post-emergence application, AMAPA (100=total damage to plant; 0=no damage to plant) [1]","Control of weed species after post-emergence application, CHEAL (100=total damage to plant; 0=no damage to plant) [2]","Control of weed species after post-emergence application, DIGSA (100=total damage to plant; 0=no damage to plant) [3]","Control of weed species after post-emergence application, ECHCG (100=total damage to plant; 0=no damage to plant) [4]","Control of weed species after post-emergence application, ELEIN (100=total damage to plant; 0=no damage to plant) (Eleusine indica (ELEIN))","Control of weed species after post-emergence application, EPHHL (100=total damage to plant; 0=no damage to plant) [5]","Control of weed species after post-emergence application, IPOHE (100=total damage to plant; 0=no damage to plant) [6]","Control of weed species after post-emergence application, LOLPE (100=total damage to plant; 0=no damage to plant) (Lolium perenne (LOLPE))","Control of weed species after post-emergence application, SETFA (100=total damage to plant; 0=no damage to plant) (Setaia fabei (SETFA))"
Cn1nc(-c2cc[n+](CCS(=O)(=O)[O-])nc2)cc1C(F)(F)F [Compound A29],20%,50%,30%,20%,30%,20%,20%,20%,20%,–,–,–,–,–,–,–,–,–
O=C(O)CC[n+]1ccc(-c2cscn2)cn1 [Compound A100],0%,0%,40%,30%,30%,30%,20%,10%,30%,–,–,–,–,–,–,–,–,–
CCOC(=O)c1oc(-c2cc[n+](CCC(=O)O)nc2)nc1C [Compound A130],100%,50%,60%,60%,80%,100%,50%,50%,30%,–,–,–,–,–,–,–,–,–
O=S(=O)([O-])CC[n+]1ccc(-c2ncns2)cn1 [Compound A9],90%,70%,70%,60%,80%,90%,80%,30%,60%,–,–,–,–,–,–,–,–,–
O=S(=O)([O-])CC(O)C[n+]1ccc(-c2ncco2)cn1 (stereo not drawn) [Compound A84],100%,90%,70%,70%,70%,90%,40%,50%,50%,–,–,–,–,–,–,–,–,–
O=P(O)(O)C[n+]1ccc(-c2ncco2)cn1 [Compound A102],–,–,–,–,–,–,–,–,–,100,90,60,70,30,90,60,10,60
Cn1nncc1-c1cc[n+](CCC(=O)O)nc1 [Compound A48],100%,90%,100%,70%,70%,90%,90%,40%,90%,–,–,–,–,–,–,–,–,–
O=C(O)CCC[n+]1ccc(-c2nccs2)cn1 [Compound A115],100%,70%,90%,90%,100%,100%,20%,60%,100%,–,–,–,–,–,–,–,–,–
CC(C)(CC(=O)O)[n+]1ccc(-c2ncco2)cn1 [Compound A107],100%,50%,70%,40%,30%,30%,20%,20%,50%,–,–,–,–,–,–,–,–,–
"Cn1ccnc1-c1cc[n+](CCC(=O)O)nc1 [Compound A31, 3-[4-(1-methylimidazol-2-yl)pyridazin-1-ium-1-yl]propanoic acid; 2,2,2-trifluoroacetate]",30%,20%,50%,40%,50%,30%,10%,20%,60%,–,–,–,–,–,–,–,–,–
O=C(O)CC[n+]1ccc(-c2ncco2)cn1 [Compound A32],80%,90%,90%,90%,90%,80%,60%,40%,80%,–,–,–,–,–,–,–,–,–
O=C(O)CC[n+]1ccc(-c2nnc[nH]2)cn1 [Compound A37],30%,50%,10%,10%,10%,30%,20%,0%,10%,–,–,–,–,–,–,–,–,–
Cc1coc(-c2cc[n+](CCS(=O)(=O)[O-])nc2)n1 [Compound A40],100%,100%,80%,80%,100%,100%,90%,80%,80%,–,–,–,–,–,–,–,–,–
O=S(=O)([O-])N1CCCC1C[n+]1ccc(-c2ncco2)cn1 (stereo not drawn) [Compound A101],70%,60%,70%,40%,30%,70%,40%,20%,60%,–,–,–,–,–,–,–,–,–
O=S(=O)([O-])CC[n+]1ccc(-c2nc(C(F)(F)F)cs2)cn1 [Compound A18],90%,10%,30%,30%,30%,50%,30%,40%,40%,–,–,–,–,–,–,–,–,–
COC(=O)C[n+]1ccc(-c2nc(C)co2)cn1 [Compound A133],0%,0%,20%,10%,10%,0%,10%,0%,0%,–,–,–,–,–,–,–,–,–
Cc1coc(-c2cc[n+](CCCC(=O)O)nc2)n1 [Compound A135],90%,20%,90%,90%,80%,90%,10%,40%,90%,–,–,–,–,–,–,–,–,–
